Laboratory results reported in US20150239831A1, “INHIBITORS OF CENTRAL NERVOUS SYSTEM VASOACTIVE INHIBITORY PEPTIDE RECEPTOR 2” (The Trustees Of Columbia University In The City Of New York, priority 2012, published 2015).
pIC50: −log10 of the molar value. Entries after “also recorded” stand apart in the source; their conditions may differ. Where two headings read alike, the source gives them in different places.

Target: T1, VIPR2 (Homo sapiens, UniProt P41587)
T1 sequence (P41587 24-438): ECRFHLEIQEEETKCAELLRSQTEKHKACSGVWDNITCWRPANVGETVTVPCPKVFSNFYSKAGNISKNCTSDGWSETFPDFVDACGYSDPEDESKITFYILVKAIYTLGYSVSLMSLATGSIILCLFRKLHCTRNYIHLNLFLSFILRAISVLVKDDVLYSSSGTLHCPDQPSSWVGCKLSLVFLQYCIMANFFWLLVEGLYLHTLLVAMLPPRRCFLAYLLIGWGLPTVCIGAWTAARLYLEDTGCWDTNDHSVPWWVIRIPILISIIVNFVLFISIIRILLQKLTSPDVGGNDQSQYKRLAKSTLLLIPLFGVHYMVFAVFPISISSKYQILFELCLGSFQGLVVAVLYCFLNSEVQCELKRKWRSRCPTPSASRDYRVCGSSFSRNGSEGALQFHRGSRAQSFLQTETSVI
Experiment: BRET-based VIPR2 activation assay (CAMYEL cAMP sensor, CHO cells, VIP background)
Type: cell-based
Settings: for VIPR2 inhibition in BRET-based assay (in words): FIG. 1C, FIG. 5
Source text: In such a system, a detector cell is used which expresses both the VIPR2 receptor and “CAMYEL,” a YFP-Epac-RLuc8 BRET sensor construct. This construct includes Epac1, a guanine nucleotide exchange factor activated by direct binding of cAMP, fused with an enhanced YFP and Renilla luciferase 8 (Rluc8) allowing BRET upon cAMP-induced conformational changes (Jiang et al., 2007, J Biol Chem. 282:10576-10584). In response to elevated cAMP levels, there is a conformational change in Epac and therefore a change in the proximity of the fused chromophores, Rluc8 and YFP, resulting in measurable energy transfer. Coexpression of this BRET construct with VIPR2, optionally tagged at the N-terminus with a signal peptide and FLAG epitope (SF-VIPR2), for example in HEK293 cells, allows for detection of a VIPR2-specific response to cAMP. BRET readout may be calculated by quantifying the ratio of the light emitted by the acceptor, YFP (λ=525 nm), over the emission from the donor, RLuc8 (λ=485 nm). The proximity of the donor and acceptor, and therefore the BRET ratio, decreases in the presence of cAMP. In non-limiting specific embodiments, a stable cell line may be generated for this assay using the Flp-In T-Rex system in HEK293 cells. This system allows site-specific single copy integration of the gene of interest and control of expression levels using the Tet-repressor site making receptor expression tetracycline-inducible. For example, a CAMYEL and VIPR2 expressing line may be induced with 0.01 μg/ml tetracycline, then, 24 hours later cells may be collected and distributed into 96-well plates. After treatment with candidate inhibitor compound, for example at 5, 1 and 0.5 μM concentrations, cells may be incubated with the light emitting luciferin, coelenterazine H, for 5 min and incubated for 5 min with VIP at increasing concentrations, for example ranging from […] to 10 μM. The fluorescence and luminescence may then be quantified, for example using a PHERAstar (BMG) plate reader. […] Alternatively, analogous experiments may be performed using human cells harvested from a patient having a VIPR2 copy number variation, for example (but not by way of limitation) pluripotent stem cells prepared from such a patient and then transfected with a CAMYEL construct.
Numerous cellular assays were developed that were able to detect VIP responses absent of interference from non-specific vasopressin receptors using this CHO based system. VIPR2 is a Gs coupled receptor. Activation of VIPR2 by VIP leads to both an elevation in cAMP signaling and the recruitment of β-arrestin. A variety of combinations can be transiently transfect into these CHO cells for the assessment of cellular responses to VIP. For the BRET readout CHO cell lines expressing an YFP-Epac-RLuc8 (CAMYEL) BRET sensor were used to detect changes in cAMP. This construct includes Epac1, a guanine nucleotide exchange factor activated by direct binding of cAMP, fused to an enhanced YFP and RLuc8 allowing a change in BRET upon cAMP-induced conformational changes. The key for medium to high throughput screening assays is the use of stable cell lines allowing the continuous assaying of multiple compounds with the ability to generate large numbers of cells for rapid use. In these lines VIPR2 was expressed as one of the stable cell lines assays. This was introduced into the CHO-Flp-IN to allow the generation of isogenic stable cell lines expressing high levels of VIPR2 under control of the CMV promoter. This has been introduced into this line together with the CAMYEL construct previously described. This allows for detection of VIPR2-specific responses to cAMP. EYFP fluorescence and RLuc8 luminescence is quantified in the presence of 5 μM light-emitting luciferin, coelenterazine H, using a PHERAstar (BMG) plate reader. BRET is calculated by quantifying the ratio of the light emitted by the acceptor, YFP (λ=525 nm), over the emission from the donor, RLuc8 (λ=485 nm).
3. […]

[1] = Table 2, read-out: BRET results (IC50)

`N#Cc1ccc(S(=O)(=O)NC[C@@H](O)C[C@@H](Cc2ccccc2)C(=O)N[C@H]2c3ccccc3C[C@H]2O)cc1` [C] was tested, and the pIC50 (Table 1, read-out: IC50) was 5.88 and the pIC50 [1] was 5.88.
`CC(C)c1ccc(S(=O)(=O)NC[C@@H](O)C[C@@H](Cc2ccccc2)C(=O)N[C@H]2c3ccccc3C[C@H]2O)cc1` [Compound A10] was tested, and the pIC50 [1] was 5.46.
`COc1ccc(S(=O)(=O)NC[C@@H](O)C[C@@H](Cc2ccccc2)C(=O)N[C@H]2c3ccccc3C[C@H]2O)cc1` [E] was tested, and the pIC50 (Table 1, read-out: IC50) was 5.99 and the pIC50 [1] was 5.99.
For `O=C(N[C@H]1c2ccccc2C[C@H]1O)[C@H](Cc1ccccc1)C[C@H](O)CNS(=O)(=O)c1ccc(C(F)(F)F)cc1` [F], the “VIPR2 inhibition in BRET-based assay (in words)” value was “greater activity than Compound 1; also recorded: greater effect on V IPR2 inhibition than Compound 1” and the pIC50 [1] was 5.63.
With `Cc1ccc(S(=O)(=O)NC[C@@H](O)C[C@@H](Cc2ccccc2)C(=O)N[C@H]2c3ccccc3C[C@H]2O)cc1` [I] the pIC50 (Table 1, read-out: IC50) was 5.93 and the pIC50 [1] was 5.70.
With `CC(=O)c1ccc(S(=O)(=O)NC[C@@H](O)C[C@@H](Cc2ccccc2)C(=O)N[C@H]2c3ccccc3C[C@H]2O)cc1` [K] the “VIPR2 inhibition in BRET-based assay (in words)” value was “significantly improved activity as an antagonist at VIPR2”, the pIC50 (Table 1, read-out: IC50) was 6.37 and the pIC50 [1] was 6.37.
